Laboratory results published in PubChem BioAssay (NCI).
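Tested at 5 concentrations; 48 h exposure; 96-well plates; endpoints linearly interpolated, else capped at highest concentration. GI50: concentration for 50% inhibition of growth. The concentration for full growth arrest is given as TGI.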

Experiments:
Assay in all cases: inhibition of tumour cell growth, NCI panel, 48 h
A498 renal = system: A498 renal
HCT-116 colon = system: HCT-116 colon
MCF7 breast = system: MCF7 breast
HS 578T breast = system: HS 578T breast
CAKI-1 renal = system: CAKI-1 renal
SR leukemia = system: SR leukemia
HOP-92 NSCLC = system: HOP-92 NSCLC
HT29 colon = system: HT29 colon
MDA-MB-435 = system: MDA-MB-435
NCI/ADR-RES ovarian = system: NCI/ADR-RES ovarian
PC-3 prostate = system: PC-3 prostate
SK-MEL-28 melanoma = system: SK-MEL-28 melanoma
LOX IMVI melanoma = system: LOX IMVI melanoma
SK-MEL-5 melanoma = system: SK-MEL-5 melanoma
NCI-H23 lung = system: NCI-H23 lung
MALME-3M melanoma = system: MALME-3M melanoma
T-47D breast = system: T-47D breast
HCT-15 colon = system: HCT-15 colon
NCI-H460 lung = system: NCI-H460 lung
HCC-2998 colon = system: HCC-2998 colon
COLO 205 colon = system: COLO 205 colon
SNB-75 CNS = system: SNB-75 CNS
DU-145 prostate = system: DU-145 prostate
SF-268 CNS = system: SF-268 CNS
OVCAR-3 ovarian = system: OVCAR-3 ovarian
RPMI-8226 leukemia = system: RPMI-8226 leukemia
TK-10 renal = system: TK-10 renal
OVCAR-8 ovarian = system: OVCAR-8 ovarian
SN12C renal = system: SN12C renal
SK-OV-3 ovarian = system: SK-OV-3 ovarian
RXF 393 renal = system: RXF 393 renal
IGROV1 ovarian = system: IGROV1 ovarian
UO-31 renal = system: UO-31 renal
MOLT-4 leukemia = system: MOLT-4 leukemia
HOP-62 NSCLC = system: HOP-62 NSCLC
UACC-62 melanoma = system: UACC-62 melanoma
KM12 colon = system: KM12 colon
SNB-19 CNS = system: SNB-19 CNS
M14 melanoma = system: M14 melanoma
MDA-MB-231 breast = system: MDA-MB-231 breast
786-0 renal = system: 786-0 renal
SW-620 colon = system: SW-620 colon
SK-MEL-2 melanoma = system: SK-MEL-2 melanoma
K-562 leukemia = system: K-562 leukemia
BT-549 breast = system: BT-549 breast
NCI-H226 lung = system: NCI-H226 lung
ACHN renal = system: ACHN renal
SF-295 CNS = system: SF-295 CNS
HL-60(TB) leukemia = system: HL-60(TB) leukemia
OVCAR-5 ovarian = system: OVCAR-5 ovarian
SF-539 CNS = system: SF-539 CNS
U251 CNS = system: U251 CNS
OVCAR-4 ovarian = system: OVCAR-4 ovarian
NCI-H522 lung = system: NCI-H522 lung
UACC-257 melanoma = system: UACC-257 melanoma
EKVX NSCLC = system: EKVX NSCLC
A549 NSCLC = system: A549 NSCLC

COc1ccccc1CNC(=O)C1c2ccccc2C(=O)N(CC(C)C)C1c1cccs1 (centres undefined)
GI50 (A498 renal): 11.9 µM | TGI (A498 renal): 51.5 µM | GI50 (HCT-116 colon): 15.3 µM | TGI (HCT-116 colon): 77.6 µM | GI50 (MCF7 breast): 27.2 µM | TGI (MCF7 breast): > 100 µM | GI50 (HS 578T breast): 16 µM | TGI (HS 578T breast): 60.1 µM | GI50 (CAKI-1 renal): 18.1 µM | TGI (CAKI-1 renal): 78.8 µM | GI50 (SR leukemia): 13.5 µM | TGI (SR leukemia): 74.7 µM | GI50 (HOP-92 NSCLC): 8.15 µM | TGI (HOP-92 NSCLC): 44 µM | GI50 (HT29 colon): 17 µM | TGI (HT29 colon): 90.5 µM | GI50 (MDA-MB-435): 16.8 µM | TGI (MDA-MB-435): 39.3 µM | GI50 (NCI/ADR-RES ovarian): 20.6 µM | TGI (NCI/ADR-RES ovarian): > 100 µM | GI50 (PC-3 prostate): 15.9 µM | TGI (PC-3 prostate): > 100 µM | GI50 (SK-MEL-28 melanoma): 30.7 µM | TGI (SK-MEL-28 melanoma): > 100 µM | GI50 (LOX IMVI melanoma): 27.8 µM | TGI (LOX IMVI melanoma): 89.1 µM | GI50 (SK-MEL-5 melanoma): 14.7 µM | TGI (SK-MEL-5 melanoma): 28.9 µM | GI50 (NCI-H23 lung): 25.8 µM | TGI (NCI-H23 lung): > 100 µM | GI50 (MALME-3M melanoma): 20.7 µM | TGI (MALME-3M melanoma): 60.3 µM | GI50 (T-47D breast): 20.2 µM | TGI (T-47D breast): 89.8 µM | GI50 (HCT-15 colon): 20.8 µM | TGI (HCT-15 colon): > 100 µM | GI50 (NCI-H460 lung): 18.1 µM | TGI (NCI-H460 lung): 46.9 µM | GI50 (HCC-2998 colon): 47.8 µM | TGI (HCC-2998 colon): > 100 µM | GI50 (COLO 205 colon): 18.2 µM | TGI (COLO 205 colon): 39.1 µM | GI50 (SNB-75 CNS): 18.1 µM | TGI (SNB-75 CNS): > 100 µM | GI50 (DU-145 prostate): 38.4 µM | TGI (DU-145 prostate): > 100 µM | GI50 (SF-268 CNS): 30.6 µM | TGI (SF-268 CNS): > 100 µM | GI50 (OVCAR-3 ovarian): 25.7 µM | TGI (OVCAR-3 ovarian): 89.1 µM | GI50 (RPMI-8226 leukemia): 13.9 µM | TGI (RPMI-8226 leukemia): 45.2 µM | GI50 (TK-10 renal): 26.3 µM | TGI (TK-10 renal): 66.9 µM | GI50 (OVCAR-8 ovarian): 23.6 µM | TGI (OVCAR-8 ovarian): > 100 µM | GI50 (SN12C renal): 35 µM | TGI (SN12C renal): > 100 µM | GI50 (SK-OV-3 ovarian): 36.9 µM | TGI (SK-OV-3 ovarian): > 100 µM | GI50 (RXF 393 renal): 17.3 µM | TGI (RXF 393 renal): 48 µM | GI50 (IGROV1 ovarian): 22.4 µM | TGI (IGROV1 ovarian): > 100 µM | GI50 (UO-31 renal): 17.7 µM | TGI (UO-31 renal): 72.5 µM | GI50 (MOLT-4 leukemia): 14.5 µM | TGI (MOLT-4 leukemia): 73.9 µM | GI50 (HOP-62 NSCLC): 40.7 µM | TGI (HOP-62 NSCLC): > 100 µM | GI50 (UACC-62 melanoma): 14.7 µM | TGI (UACC-62 melanoma): 38.6 µM | GI50 (KM12 colon): 24.8 µM | TGI (KM12 colon): > 100 µM | GI50 (SNB-19 CNS): 28.8 µM | TGI (SNB-19 CNS): > 100 µM | GI50 (M14 melanoma): 19.1 µM | TGI (M14 melanoma): 52.7 µM | GI50 (MDA-MB-231 breast): 26.8 µM | TGI (MDA-MB-231 breast): > 100 µM | GI50 (786-0 renal): 20.3 µM | TGI (786-0 renal): 51.2 µM | GI50 (SW-620 colon): 26.4 µM | TGI (SW-620 colon): > 100 µM | GI50 (SK-MEL-2 melanoma): 16.6 µM | TGI (SK-MEL-2 melanoma): 36.9 µM | GI50 (K-562 leukemia): 20.3 µM | TGI (K-562 leukemia): > 100 µM | GI50 (BT-549 breast): 23 µM | TGI (BT-549 breast): 64.4 µM | GI50 (NCI-H226 lung): 20.4 µM | TGI (NCI-H226 lung): 72.4 µM | GI50 (ACHN renal): 24.8 µM | TGI (ACHN renal): 90.3 µM | GI50 (SF-295 CNS): 15.6 µM | TGI (SF-295 CNS): 67.8 µM | GI50 (HL-60(TB) leukemia): 20.5 µM | TGI (HL-60(TB) leukemia): 60.9 µM | GI50 (OVCAR-5 ovarian): 34.6 µM | TGI (OVCAR-5 ovarian): > 100 µM | GI50 (SF-539 CNS): 16.9 µM | TGI (SF-539 CNS): 33.8 µM | GI50 (U251 CNS): 23.9 µM | TGI (U251 CNS): > 100 µM | GI50 (OVCAR-4 ovarian): 26.2 µM | TGI (OVCAR-4 ovarian): > 100 µM

CC1(C)[C@@H]2C[C@H]1C(Cc1ccc(C[C@H]3c4cc(-c5ccccn5)ncc4[C@H]4C[C@@H]3C4(C)C)cc1)c1cc(-c3ccccn3)ncc12 (some centres undefined)
TGI (A498 renal): 7.99 µM | TGI (HCT-116 colon): 18.3 µM | TGI (MCF7 breast): > 100 µM | TGI (HS 578T breast): > 100 µM | TGI (CAKI-1 renal): > 100 µM | TGI (SR leukemia): 5.02 µM | TGI (NCI-H522 lung): > 100 µM | TGI (UACC-257 melanoma): > 100 µM | TGI (HT29 colon): > 100 µM | TGI (EKVX NSCLC): 15 µM | TGI (MDA-MB-435): 23.3 µM | TGI (NCI/ADR-RES ovarian): 22.2 µM | TGI (A549 NSCLC): 87.9 µM | TGI (PC-3 prostate): 22.8 µM | TGI (SK-MEL-28 melanoma): 79.7 µM | TGI (LOX IMVI melanoma): 7.55 µM | TGI (SK-MEL-5 melanoma): 7.81 µM | TGI (NCI-H23 lung): 37 µM | TGI (MALME-3M melanoma): 76.6 µM | TGI (T-47D breast): > 100 µM | TGI (HCT-15 colon): > 100 µM | TGI (NCI-H460 lung): 13.8 µM | TGI (HCC-2998 colon): 88.2 µM | TGI (COLO 205 colon): 13.7 µM | TGI (SNB-75 CNS): > 100 µM | TGI (DU-145 prostate): > 100 µM | TGI (SF-268 CNS): 28.6 µM | TGI (OVCAR-3 ovarian): 18.8 µM | TGI (RPMI-8226 leukemia): 70 µM | TGI (TK-10 renal): > 100 µM | TGI (OVCAR-8 ovarian): 15.8 µM | TGI (SN12C renal): 23.3 µM | TGI (SK-OV-3 ovarian): > 100 µM | TGI (RXF 393 renal): 77.8 µM | TGI (IGROV1 ovarian): > 100 µM | TGI (UO-31 renal): 4.91 µM | TGI (HOP-62 NSCLC): 11 µM | TGI (UACC-62 melanoma): 5.68 µM | TGI (KM12 colon): 38.4 µM | TGI (SNB-19 CNS): > 100 µM | TGI (M14 melanoma): > 100 µM | TGI (MDA-MB-231 breast): > 100 µM | TGI (786-0 renal): 14.7 µM | TGI (SW-620 colon): > 100 µM | TGI (SK-MEL-2 melanoma): > 100 µM | TGI (K-562 leukemia): > 100 µM | TGI (BT-549 breast): > 100 µM | TGI (ACHN renal): > 100 µM | TGI (SF-295 CNS): > 100 µM | TGI (HL-60(TB) leukemia): 2.28 µM | TGI (OVCAR-5 ovarian): > 100 µM | TGI (SF-539 CNS): 7.13 µM | TGI (U251 CNS): 19.7 µM
